Consider 18 compounds from patent US9834542B2, “LXR modulators” (BRISTOL-MYERS SQUIBB COMPANY, priority 2013, dated 2017).

In this test the target is T1, LXRβ (Homo sapiens, UniProt P55055).
T1 construct: Co-transfection expression plasmids, comprising full-length LXRα (pCMX-h LXRα[…] or LXRβ (pCMX-hLXRβ)); expressed in transfected cells; host or cells: CV-1 African Green Monkey Kidney Cells
T1 sequence (P55055 1-460): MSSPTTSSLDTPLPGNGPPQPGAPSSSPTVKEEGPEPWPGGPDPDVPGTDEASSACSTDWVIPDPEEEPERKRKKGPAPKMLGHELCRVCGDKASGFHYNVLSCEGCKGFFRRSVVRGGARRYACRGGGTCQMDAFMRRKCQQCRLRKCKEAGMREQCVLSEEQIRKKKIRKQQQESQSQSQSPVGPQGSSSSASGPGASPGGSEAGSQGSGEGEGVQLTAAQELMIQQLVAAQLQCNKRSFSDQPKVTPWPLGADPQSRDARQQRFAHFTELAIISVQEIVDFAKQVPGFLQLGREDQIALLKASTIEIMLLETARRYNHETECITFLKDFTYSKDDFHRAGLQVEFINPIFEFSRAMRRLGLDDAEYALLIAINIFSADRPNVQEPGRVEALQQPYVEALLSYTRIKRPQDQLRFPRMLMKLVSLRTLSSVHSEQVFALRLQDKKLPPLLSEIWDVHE
T1 sequence (P19793 1-462 partner): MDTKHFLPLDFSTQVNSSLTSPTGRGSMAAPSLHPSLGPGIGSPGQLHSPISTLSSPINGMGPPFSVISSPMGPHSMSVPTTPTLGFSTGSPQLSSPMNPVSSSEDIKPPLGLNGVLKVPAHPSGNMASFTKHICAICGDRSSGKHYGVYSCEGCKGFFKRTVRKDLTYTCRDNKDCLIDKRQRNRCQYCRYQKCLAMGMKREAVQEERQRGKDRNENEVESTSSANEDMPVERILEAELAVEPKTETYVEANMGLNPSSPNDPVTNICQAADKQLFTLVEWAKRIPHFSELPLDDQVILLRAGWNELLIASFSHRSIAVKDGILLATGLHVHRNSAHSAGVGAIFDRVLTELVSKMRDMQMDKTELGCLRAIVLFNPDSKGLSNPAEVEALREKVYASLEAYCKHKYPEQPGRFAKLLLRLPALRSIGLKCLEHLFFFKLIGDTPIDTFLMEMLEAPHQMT
As to the kind of experiment: Co-transfection assay (LXRE luciferase reporter), LXRβ. As to conditions: for EC50: CV-1 cells transfected with pCMX-hLXRβ and LXREx1-Tk-Luciferase, 20 hours incubation; for Emax: LXRβ co-transfection, relative to high control 1-(2,4-difluorobenzyl)-2-oxo-6-(4-phenoxyphenyl)-4-(trifluoromethyl)-1,2-dihydropyridine-3-carbonitrile, read-out: % Efficacy. It counts as cell-based. The essentials: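 CV-1 cells transiently co-transfected with full-length human LXRβ (or LXRα), LXREx1-Tk-luciferase reporter and β-galactosidase control; compound added (10 μM final in single-point, 11-point ½-log curves, ≤0.5% DMSO) for 20 h at 37 °C. Luciferase read; EC50 from four-parameter fit, efficacy relative to reference agonist high control.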
(In general: A reporter such as luciferase makes a cellular process visible.)

As for `CCc1nc(-c2cc(-c3cccc(S(C)(=O)=O)c3)ccc2-n2cc(C(F)(F)F)nc2C)c(-c2ccc3c(c2)OC(F)(F)O3)o1` [Example 478, 5-(2,2-difluorobenzo[d][1,3]dioxol-5-yl)-2-ethyl-4-(4-(2-methyl-4-(trifluoromethyl)-1H-imidazol-1-yl)-3′-(methylsulfonyl)biphenyl-3-yl)oxazole], the EC50 was determined as 32 nM and the Emax was found to be 89%.

`CCc1nc(-c2cc(-c3cc(F)c(CO)c(S(C)(=O)=O)c3)ccc2-n2cc(C(F)(F)F)nc2C)c(-c2ccc3c(c2)OC(F)(F)O3)o1` [Example 479, (3′-(5-(2,2-difluorobenzo[d][1,3]dioxol-5-yl)-2-ethyloxazol-4-yl)-3-fluoro-4′-(2-methyl-4-(trifluoromethyl)-1H-imidazol-1-yl)-5-(methylsulfonyl)biphenyl-4-yl)methanol]: the EC50 turned out to be 30 nM and the Emax was 81%.

For the compound `Cc1nc(C(F)(F)F)cn1-c1ccc(-c2cccc(S(C)(=O)=O)c2)cc1-c1nc(C(C)C)oc1-c1ccc2c(c1)OC(F)(F)O2` [Example 480, 5-(2,2-difluorobenzo[d][1,3]dioxol-5-yl)-2-isopropyl-4-(4-(2-methyl-4-(trifluoromethyl)-1H-imidazol-1-yl)-3′-(methylsulfonyl)biphenyl-3-yl)oxazole], the EC50 came to 63 nM and the Emax was determined as 74%.

Consider `Cc1nc(C(F)(F)F)cn1-c1ccc(-c2cc(F)c(CO)c(S(C)(=O)=O)c2)cc1-c1nc(C(C)C)oc1-c1ccc2c(c1)OC(F)(F)O2` [Example 481, (3′-(5-(2,2-difluorobenzo[d][1,3]dioxol-5-yl)-2-isopropyloxazol-4-yl)-3-fluoro-4′-(2-methyl-4-(trifluoromethyl)-1H-imidazol-1-yl)-5-(methylsulfonyl)biphenyl-4-yl)methanol], for which a half-maximal effect (EC50) was put at 54 nM and the Emax is 66%.

`Cc1nc(C(F)(F)F)cn1-c1ccc(-c2cccc(S(C)(=O)=O)c2)cc1-c1nc(C2CC2)oc1-c1ccc2c(c1)OC(F)(F)O2` [Example 482, 2-cyclopropyl-5-(2,2-difluorobenzo[d][1,3]dioxol-5-yl)-4-(4-(2-methyl-4-(trifluoromethyl)-1H-imidazol-1-yl)-3′-(methylsulfonyl)biphenyl-3-yl)oxazole]: the EC50 amounted to 40 nM and the Emax turned out to be 71%.

As for `Cc1nc(C(F)(F)F)cn1-c1ccc(-c2cc(F)c(CO)c(S(C)(=O)=O)c2)cc1-c1nc(C2CC2)oc1-c1ccc2c(c1)OC(F)(F)O2` [Example 483], the EC50 is 40 nM and the Emax was determined as 66%.

On to `Cc1nc(-c2cc(-c3cccc(S(C)(=O)=O)c3)ccc2-n2cc(C(F)(F)F)nc2C)c(-c2ccc(Cl)cc2F)o1` [Example 484, 5-(4-chloro-2-fluorophenyl)-2-methyl-4-(4-(2-methyl-4-(trifluoromethyl)-1H-imidazol-1-yl)-3′-(methylsulfonyl)biphenyl-3-yl)oxazole], for which the 50% effective concentration (EC50) was determined as 48 nM and the Emax stood at 57%.

Turning to `Cc1nc(-c2cc(-c3cc(F)c(CO)c(S(C)(=O)=O)c3)ccc2-n2cc(C(F)(F)F)nc2C)c(-c2ccc(Cl)cc2F)o1` [Example 485, (3′-(5-(4-chloro-2-fluorophenyl)-2-methyloxazol-4-yl)-3-fluoro-4′-(2-methyl-4-(trifluoromethyl)-1H-imidazol-1-yl)-5-(methylsulfonyl)biphenyl-4-yl)methanol], it took 32 nM to reach a half-maximal effect (EC50) and the Emax came out at 55%.

As to `Cc1nc(-c2cc(-c3cccc(S(C)(=O)=O)c3)ccc2-n2cc(C(F)(F)F)nc2C)c(-c2ccc(Cl)cc2Cl)o1` [Example 486, 5-(2,4-dichlorophenyl)-2-methyl-4-(4-(2-methyl-4-(trifluoromethyl)-1H-imidazol-1-yl)-3′-(methylsulfonyl)biphenyl-3-yl)oxazole], the EC50 was found to be 109 nM and the Emax is 89%.

In the case of `Cc1nc(-c2cc(-c3cc(F)c(CO)c(S(C)(=O)=O)c3)ccc2-n2cc(C(F)(F)F)nc2C)c(-c2ccc3c(c2)C(O)C(F)(F)O3)o1` (stereo not drawn) [Example 487, 2,2-difluoro-5-(4-(3′-fluoro-4′-(hydroxymethyl)-4-(2-methyl-4-(trifluoromethyl)-1H-imidazol-1-yl)-5′-(methylsulfonyl)biphenyl-3-yl)-2-methyloxazol-5-yl)-2,3-dihydrobenzofuran-3-ol], the concentration for a half-maximal effect (EC50) turned out to be 815 nM and the Emax came out at 59%.

For the compound `Cc1nc(-c2cc(-c3cc(F)c(CO)c(S(C)(=O)=O)c3)ccc2-n2cc(C(F)(F)F)nc2C)c(-c2ccc(Cl)cc2Cl)o1` [Example 488, (3′-(5-(2,4-dichlorophenyl)-2-methyloxazol-4-yl)-3-fluoro-4′-(2-methyl-4-(trifluoromethyl)-1H-imidazol-1-yl)-5-(methylsulfonyl)biphenyl-4-yl)methanol], a half-maximal effect (EC50) was put at 17 nM and the Emax came out at 66%.

As to `Cc1nc(C(N)=O)cn1-c1ccc(-c2cccc(S(C)(=O)=O)c2)cc1-c1nc(C2CC2)oc1-c1ccc2c(c1)OC(F)(F)O2` [Example 489, 1-(3-(2-cyclopropyl-5-(2,2-difluorobenzo[d][1,3]dioxol-5-yl)oxazol-4-yl)-3′-(methylsulfonyl)biphenyl-4-yl)-2-methyl-1H-imidazole-4-carboxamide], the EC50 stood at 1080 nM and the Emax came to 35%.

For the compound `Cc1nc(C(N)=O)cn1-c1ccc(-c2cc(F)c(CO)c(S(C)(=O)=O)c2)cc1-c1nc(C2CC2)oc1-c1ccc2c(c1)OC(F)(F)O2` [Example 490, 1-(3-(2-cyclopropyl-5-(2,2-difluorobenzo[d][1,3]dioxol-5-yl)oxazol-4-yl)-3′-fluoro-4′-(hydroxymethyl)-5′-(methylsulfonyl)biphenyl-4-yl)-2-methyl-1H-imidazole-4-carboxamide], the EC50 worked out at 76 nM and the Emax was 54%.

Regarding `Cc1ccc(-c2oc(C)nc2-c2cc(-c3cccc(S(C)(=O)=O)c3)ccc2-n2cc(C(F)(F)F)nc2C)cc1` [Example 491, 2-methyl-4-(4-(2-methyl-4-(trifluoromethyl)-1H-imidazol-1-yl)-3′-(methylsulfonyl)-[1,1′-biphenyl]-3-yl)-5-(p-tolyl)oxazole], it took 63 nM to reach a half-maximal effect (EC50) and the Emax came out at 71%.

In the case of `Cc1ccc(-c2oc(C)nc2-c2cc(-c3cc(F)c(CO)c(S(C)(=O)=O)c3)ccc2-n2cc(C(F)(F)F)nc2C)cc1` [Example 492, (3-fluoro-4′-(2-methyl-4-(trifluoromethyl)-1H-imidazol-1-yl)-3′-(2-methyl-5-p-tolyloxazol-4-yl)-5-(methylsulfonyl)biphenyl-4-yl)methanol], the EC50 amounted to 34 nM and the Emax is 64%.

Take `Cc1nc(-c2cc(-c3cccc(S(C)(=O)=O)c3)ccc2-n2cc(C(F)(F)F)nc2C)c(-c2ccc3c(c2)OC(F)(F)O3)o1` [Example 493, 5-(2,2-difluorobenzo[d][1,3]dioxol-5-yl)-2-methyl-4-(4-(2-methyl-4-(trifluoromethyl)-1H-imidazol-1-yl)-3′-(methylsulfonyl)biphenyl-3-yl)oxazole]: the EC50 stood at 40 nM and the Emax is 95%.

Turning to `Cc1nc(-c2cc(-c3cc(F)c(CO)c(S(C)(=O)=O)c3)ccc2-n2cc(C(F)(F)F)nc2C)c(-c2ccc3c(c2)OC(F)(F)O3)o1` [Example 494, (3′-(5-(2,2-difluorobenzo[d][1,3]dioxol-5-yl)-2-methyloxazol-4-yl)-3-fluoro-4′-(2-methyl-4-(trifluoromethyl)-1H-imidazol-1-yl)-5-(methylsulfonyl)biphenyl-4-yl)methanol], a half-maximal response (EC50) required 47 nM and the Emax came to 90%.

Take `Cc1nc(-c2cc(-c3cccc(S(C)(=O)=O)c3)ccc2-n2cc(C(F)(F)F)nc2C)c(-c2ccc(OC(F)F)cc2)o1` [Example 495, 5-(4-(difluoromethoxy)phenyl)-2-methyl-4-(4-(2-methyl-4-(trifluoromethyl)-1H-imidazol-1-yl)-3′-(methylsulfonyl)biphenyl-3-yl)oxazole]: the EC50 was 71 nM and the Emax is 108%.

The term EC50 denotes the concentration needed to bring the measured effect to its halfway point. Higher therefore signals a need for much substance.
